Results as given in the supplement of paper PMC12420376.

Tests used:
KURAMOCHI = experiment: drug sensitivity score (DSS2) on cancer cell count; higher = more sensitive; extreme values may be limits of the assay; details: 72 h
Outline: (§1)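 Ovarian cancer cells were grown alone or in 1:1 direct co-culture with lung or skin fibroblasts. They were plated onto 384-well plates pre-spotted acoustically with 528 approved and investigational compounds at 5 concentrations, then treated for 72 h. Cells were fixed, immunostained for CK8/18 with Hoechst, and imaged at 10× (4 fields) to count cancer cells. A drug sensitivity score (DSS2) was derived in Breeze from 4-parameter logistic fits, with screen quality checked by Z'.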

OVCAR8 = experiment: as above; details: 72 h
Outline: as §1

[1] = co-cultured fibroblast: BJHTERT
[2] = co-cultured fibroblast: none (monoculture)

SMILES | drug sensitivity score (KURAMOCHI; [1]) [DSS] | drug sensitivity score (KURAMOCHI; co-cultured fibroblast: WI38) [DSS] | drug sensitivity score (KURAMOCHI; [2]) [DSS] | drug sensitivity score (OVCAR8; [1]) [DSS] | drug sensitivity score (OVCAR8; co-cultured fibroblast: WI38) [DSS] | drug sensitivity score (OVCAR8; [2]) [DSS]
CC(C)(C)C[C@@H]1N[C@@H](C(=O)N[C@H]2CC[C@H](O)CC2)[C@H](c2cccc(Cl)c2F)[C@]12C(=O)Nc1cc(Cl)ccc12 | 0 | 0.1 | 0 | 2.5 | 0 | 0
CC(C)(C)c1cc(NC(=O)Nc2ccc(Oc3ccnc4[nH]c(=O)cnc34)cc2F)n(-c2ccccc2)n1 | 10 | 6.1 | 7 | 6.6 | 3.4 | 4.6
CC(C)Oc1ccc(C(=O)N[C@H](CNC(=O)CN(C)C)Cc2ccc(-c3cn4cccc([C@H](C)O)c4n3)cc2)cc1Cl | 18.1 | 22.6 | 22.8 | 18.3 | 14.2 | 16.6
CCOc1ccn(-c2ccc(F)cc2)c(=O)c1C(=O)Nc1ccc(Oc2ccnc(N)c2Cl)c(F)c1 | 0.6 | 0 | 0 | 0 | 0 | 0
CC[C@@H]1[C@H](F)C(=O)N[C@@H]1COc1nccc2cc(C(N)=O)c(OC)cc12 | 3.7 | 1.8 | 1.9 | 2.4 | 10.1 | 4
CCc1cncnc1N1CCN(Cc2nc3ccc(C(F)(F)F)cc3[nH]2)CC1 | 1 | 0 | 2.1 | 1.3 | 0 | 2.4
CCn1c(-c2nonc2N)nc2c(C#CC(C)(C)O)ncc(OC[C@H]3CCCNC3)c21 | 4.3 | 6.1 | 3.9 | 0.2 | 1.1 | 0.4
CCn1c(-c2nonc2N)nc2cnc(Oc3cccc(NC(=O)c4ccc(OCCN5CCOCC5)cc4)c3)cc21 | 4.2 | 5.2 | 4.2 | 10.9 | 31.2 | 18.4
CCn1c(C(=O)N(C2CC2)C2CC2)cc2c3c(ncn3C)c(Nc3cc(C)n(C)n3)nc21 | 3 | 1.5 | 0 | 0 | 1.1 | 1.3
CCn1cc(-c2ccnc3[nH]c(-c4cccc(CN(C)C)c4)cc23)c(-c2ccc(NC(=O)N(C)C)cc2)n1 | 13.7 | 15.5 | 14.2 | 12.3 | 4.4 | 10
CN(C)CC#Cc1ccc(OCCCc2sc(N3CCc4cccc(C(=O)Nc5nc6ccccc6s5)c4C3)nc2C(=O)O)c(F)c1 | 4.1 | 6.1 | 6.9 | 4.3 | 0 | 0.7
CN(c1ncccc1CNc1nc(Nc2ccc3c(c2)CC(=O)N3)ncc1C(F)(F)F)S(C)(=O)=O | 11.5 | 10.7 | 12.6 | 8.5 | 6.6 | 6.2
CN1CCN(C2CCC(n3cc(-c4ccc(Oc5ccccc5)cc4)c4c(N)ncnc43)CC2)CC1 (configuration not stated) | 19.5 | 17.8 | 20.5 | 12.9 | 11.4 | 18.6
CNC(=O)c1ccc(C)c(-n2c(C)cc(OCc3ccc(F)cc3F)c(Br)c2=O)c1 | 0.6 | 0 | 14.9 | 0.9 | 0 | 0
CNC(=O)c1ccccc1Nc1nc(Nc2ccc3c(c2OC)CCC[C@H](N2CCN(CCO)CC2)C3)ncc1Cl | 6.7 | 2.2 | 9.5 | 7.3 | 2.2 | 11.1
CNS(=O)(=O)Nc1nccc(Cc2c(C)c3ccc(Oc4ncccn4)cc3oc2=O)c1F | 0 | 0 | 4.3 | 0 | 5.7 | 0.2
CNc1nc(-c2ccc3c(N)n[nH]c3c2)cc(N2C[C@@H](C(=O)NC3CCCCC3)CC[C@H]2C)n1 | 3.2 | 3.1 | 6.5 | 1.3 | 0.1 | 2.8
CNc1ncc2cc(-c3cc(NC(=O)NCCC(C)(C)C)c(F)cc3C)c(C)nc2n1 | 12.7 | 10.2 | 9.9 | 13.1 | 15.7 | 14.7
CONC(=O)c1ccccc1Nc1cc(Nc2cc(C)nn2C(C)C)ncc1Cl | 3.3 | 0 | 0.2 | 0.8 | 4.2 | 0
CO[C@@H](C)Cn1c(=O)n(C)c2cnc3ccc(-c4cncc(C(C)(C)O)c4)cc3c21 | 11.9 | 10.9 | 9.2 | 9.6 | 9.6 | 9.8
COc1cc2ncnc(Oc3cccc(NC(=O)Nc4cc(C(C)(C)C(F)(F)F)on4)c3)c2cc1OC | 0 | 1.4 | 0 | 0 | 0 | 0.8
COc1ccc(Cn2ccc3ccc(C(=O)NO)cc32)cc1 | 6.6 | 2.3 | 3.2 | 2.5 | 0.7 | 3
COc1ccc2[nH]cc(/C=C3\C(=O)Nc4ccc(NC(=O)CCN5CCCCC5)cc43)c2c1 | 7.6 | 9.6 | 9.2 | 4 | 9.8 | 8.6
C[C@@H](Oc1cc(-n2cnc3ccc(CN4CCN(C)CC4)cc32)sc1C(N)=O)c1ccccc1C(F)(F)F | 28 | 27.7 | 25.3 | 42.4 | 32.3 | 31
C[C@@H](Oc1ccc2[nH]nc(/C=C/c3cnn(CCO)c3)c2c1)c1c(Cl)cncc1Cl | 5.7 | 2.2 | 6.7 | 8.2 | 9.2 | 8
C[C@@H]1CN(CC(=O)Nc2ccc3c(c2)Cc2cccc(-c4cc(=O)cc(N5CCOCC5)o4)c2S3)C[C@H](C)O1 | 3.2 | 0.2 | 2.5 | 7.6 | 5.6 | 0.7
C[C@@]1(C(=O)Nc2ccc(F)nc2)CCCN1c1nc(Nc2cc(C3CC3)n[nH]2)c2cccn2n1 | 13.3 | 5.5 | 10.8 | 11.6 | 13 | 14
